Values of other authors in US20060147526A1, “Pharmaceutical formulations comprising ß-2 adrenoreceptor agonists and xanthines” (CIPLA LIMTED, priority 2002, published 2006).

Key:
[1] = in vivo
[2] = inhalation

In the case of `CN(C)C(=O)Oc1cc(OC(=O)N(C)C)cc(C(O)CNC(C)(C)C)c1` (centres unmarked) [bambuterol, 5-[2-(tert-butylamino)-1-hydroxyethyl]-m-phenylene-bis(dimethylcarbamate)], the duration of action [1] is given as 24 h.
In the case of `OCc1cc(C(O)CNCCCCCCOCCCCc2ccccc2)ccc1O` (centres unmarked) [salmeterol], the persistent bronchodilation lasting [2] is listed as “over 12 hours”.
